The target in test [1] is T1, 50S ribosomal protein rplB (Staphylococcus aureus, UniProt P60430).
T1 construct: purified recombinant rplB protein
T1 sequence (P60430 1-277): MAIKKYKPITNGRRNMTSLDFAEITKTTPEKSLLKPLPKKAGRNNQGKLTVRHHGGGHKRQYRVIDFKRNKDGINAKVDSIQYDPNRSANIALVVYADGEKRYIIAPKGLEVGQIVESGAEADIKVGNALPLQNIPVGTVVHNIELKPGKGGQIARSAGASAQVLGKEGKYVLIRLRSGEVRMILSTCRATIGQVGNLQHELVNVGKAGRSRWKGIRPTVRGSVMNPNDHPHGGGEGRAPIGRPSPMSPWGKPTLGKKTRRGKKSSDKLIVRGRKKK
The test is described as follows: in-gel fluorescence covalent labeling of purified recombinant protein (click chemistry), competed by Sof and IAA. Format: binding.

Test [2] has as its target T2, 50S ribosomal protein rplB (Staphylococcus aureus, UniProt P60430).
T2 construct: purified recombinant S. aureus rplB protein (His-Tag labeled)
The test is described as follows: microscale thermophoresis; also thermal shift of pure protein and competition with Sof-P labeling. Format: binding.

Structures are written as SMILES.

For the compound `C#CCNC(=O)COc1cc(OCC=C(C)C)ccc1C(=O)/C=C/c1ccc(OCC=C(C)C)cc1` [Sof-P], in test [1], the “in-gel fluorescence covalent labeling of purified recombinant protein (click che)” value is “Sof-P labeling of recombinant rplB was concentration-dependent and was effectively competed by excess Sof or iodoacetamide (IAA)”.
In general, Kd refers to the constant that tells how readily two partners part at equilibrium. Consider `CC(C)=CCOc1ccc(/C=C/C(=O)c2ccc(OCC=C(C)C)cc2OCC(=O)O)cc1` [Sof, 2′-carboxymethoxy-4,4′-bis(3-methyl-2-butenyloxy) chalcone], for which the Kd in test [2] is 1.27 µM.

The values are drawn from PMC12102032, “Chemoproteomics unveils Sofalcone targeting ribosomal proteins to inhibit protein synthesis in Staphylococcus aureus” (Molecular Biomedicine, 2025).
